How the values were obtained:
Test in all cases: MIC for vancomycin
Type in all cases: cell-based
[1] = system: Enterococcus faecium VRE05; settings: strain VRE05, read-out: MIC (minimum inhibitory concentration for vancomycin)
[2] = system: Enterococcus faecium VRE04; settings: strain VRE04, read-out: MIC (minimum inhibitory concentration for vancomycin)
[3] = system: Enterococcus faecium VRE02; settings: VRE02, read-out: MIC (minimum inhibitory concentration for vancomycin)
[4] = system: Enterococcus faecium VRE03; settings: strain VRE03, read-out: MIC (minimum inhibitory concentration for vancomycin)
[5] = system: Enterococcus faecium VRE07; settings: strain VRE07, read-out: MIC (minimum inhibitory concentration for vancomycin)
[6] = system: Enterococcus faecium VRE06; settings: strain VRE06, read-out: MIC (minimum inhibitory concentration for vancomycin)

Measured: MIC

CN[C@H](CC(C)C)C(=O)N[C@H]1C(=O)N[C@@H](CC(N)=O)C(=O)N[C@H]2C(=O)N[C@H]3C(=O)N[C@H](C(=O)N[C@H](C(=O)O)c4cc(O)cc(O)c4-c4cc3ccc4O)[C@H](O)c3ccc(c(Cl)c3)Oc3cc2cc(c3O[C@@H]2O[C@H](CO)[C@@H](O)[C@H](O)[C@H]2O[C@H]2C[C@](C)(N)[C@H](O)[C@H](C)O2)Oc2ccc(cc2Cl)[C@H]1O [vancomycin]
> 256 mg/L: [1] | [2] | [3] | [4] | [5] | [6]
